The values below are quoted from earlier work in patent publication US8546362B2, “Medicinal cream made using neomycin sulphate, betamethasone valerate, and chitosan, and a process to make the same” (priority 2009, dated 2013).

Like-named read-outs stand apart in the source and are kept apart here.

One data set concerns Haemophilus influenzae. As to conditions: in vitro.
For data set [1], the system named is indole-positive and indole-negative Proteus. As to conditions: in vitro.
The subject of a further data set is Moraxella lacunata. As to conditions: in vitro.
The subject of the next data set is Staphylococcus aureus. The note with it: in vitro.
In another data set the test system is Escherichia coli. The note with it: in vitro.
The test system of another data set is Serratia. As to conditions: in vitro.
The conditions of data set [2]: from the peritoneum, draining sinuses, wounds, or surgical sites.
The next data set relates to S. epidermidis. As to conditions: in vitro.

As for `CCCCC(=O)O[C@]1(C(=O)CO)[C@@H](C)C[C@H]2[C@@H]3CCC4=CC(=O)C=C[C@]4(C)[C@@]3(F)[C@@H](O)C[C@@]21C` [Betamethasone Valerate, 9-Fluoro-11β, 17,21-trihydroxy-16β-methylpregna-1,4-diene-3,20-dione 17-valerate], the Solubility result (in acetone) is “freely soluble”; the Solubility result (in alcohol) was “soluble”; the Solubility entry (in benzene) was “slightly soluble”; the Solubility entry (in chloroform) is listed as “freely soluble”; the Solubility result (in ether) is listed as “slightly soluble”; the Solubility result (in water) is given as “practically insoluble”.

Regarding `NC[C@@H]1O[C@H](O[C@H]2[C@@H](O)[C@H](O[C@@H]3[C@@H](O)[C@H](N)C[C@H](N)[C@H]3O[C@H]3O[C@H](CN)[C@@H](O)[C@H](O)[C@H]3N)O[C@@H]2CO)[C@H](N)[C@@H](O)[C@@H]1O` [Neomycin], the Antimicrobial activity entry in the data set with most anaerobic bacteria, with viruses and with fungi was “inactive” each time. The “Concentrations that inhibit most susceptible strains” value (with Haemophilus influenzae; in [1]; with Moraxella lacunata; in the data set on Staphylococcus aureus; with Escherichia coli; in the data set on Serratia) was 1 to 12.5 µg/mL each time. For the same compound, in the data set with S. epidermidis, the “Concentrations that inhibit most susceptible strains” value was 1 to 12.5 µg/mL. Also, the results for the Antibacterial activity result with streptococci and with Pseudomonas aeruginosa were “only minimally active” and “generally resistant”, respectively. Moreover, the Solubility entry was “very slightly soluble” (in alcohol) and “freely soluble” (in water). In [2], the Absorption result is “rapidly absorbed”.
